Assay results from paper PMC6149822, “A New Series of Pyrrole-Based Chalcones: Synthesis and Evaluation of Antimicrobial Activity, Cytotoxicity, and Genotoxicity” (Molecules : A Journal of Synthetic Chemistry and Natural …, 2017).
≈ marks a conversion by molar mass, not a printed value.

How the values were obtained:
[1] = system: HepG2 human hepatocellular carcinoma cell line; assay: MTT assay; format: cell-based; details: Homo sapiens, HepG2
Procedure: (§1) The anticancer effects of compounds 1–10 on A549 human lung adenocarcinoma (ATCC® CCL-185™), HepG2 human hepatocellular carcinoma (ATCC® HB-8065™), and C6 rat glioma (ATCC® CCL107™) cell lines were assessed using 3-(4,5-Dimethylthiazol-2-yl)-2,5-diphenyltetrazolium bromide (MTT) assay, whereas the selectivity of compounds 1–10 was tested using NIH/3T3 mouse embryonic fibroblast cell line (ATCC® CRL-1658™, London, UK). All cell lines were incubated according to the supplier’s recommendations. The cells were seeded as 1 × 10^4 cells into each well of the 96-well plates. MTT assay was performed as previously described. The compounds were tested between the concentrations equal to 1 mM and 0.000316 mM (1.0, 0.316, 0.10, 0.0316, 0.01, 0.00316, 0.001, 0.000316 mM). Stock solutions of compounds were prepared in dimethyl sulfoxide (DMSO) and further dilutions were made with fresh culture medium. The final DMSO concentration was under 1% [34] and cisplatin was used as a positive control. Inhibition % was calculated for each concentration according to the formula below, and IC50 values were determined by plotting a dose–response curve of inhibition % versus compound concentrations tested. All experiments were performed in quadruplicate.Inhibition % = 100 − [(ODtest compound − ODblank/ODsolvent control − ODblank)] × 100(1)

C6 rat glioma cell line = assay: MTT assay; format: cell-based; details: Rattus norvegicus, C6
Procedure: as §1

[2] = system: A549 human lung adenocarcinoma cell line; assay: MTT assay; format: cell-based; details: Homo sapiens, A549
Procedure: as §1

[3] = system: NIH/3T3 mouse embryonic fibroblast cell line; assay: MTT assay; format: cell-based; details: Mus musculus, NIH3T3, healthy cells for selectivity
Procedure: as §1

C. glabrata (ATCC 90030) = assay: Microdilution susceptibility assay (MIC); format: cell-based, Candida glabrata; details: Nakaseomyces glabratus, ATCC90030
Procedure: (§2) Compounds 1–10 were screened for their antimicrobial activity against gram-negative bacteria, gram-positive bacteria, and yeasts, listed in Table 1. Bacteria were grown in Mueller-Hinton Broth and yeasts were grown in Sabouraud Dextrose Broth (SDB) during experiments. Overnight cultures were prepared routinely by subculturing of stock culture onto Mueller-Hinton Agar for bacteria and Sabouraud Dextrose Agar for yeasts.
(§3) Microdilution susceptibility assay was used for the determination of antibacterial and anticandidal efficacy of compounds 1–10. Chloramphenicol and ketoconazole were used as positive controls for bacteria and yeasts, respectively. All experiments were designed according to the Clinical Laboratory Standards Institute (CLSI). All chemicals were dissolved in dimethyl sulfoxide (DMSO) to obtain stock solution (10 mg/mL). Two-fold serial dilutions (800, 400, 200...0.78 µg/mL) of the compounds were prepared from stock solutions with dH2O. 100 µL of each solution was transferred to 96-well microtiter plates and 100 µL of 10^6 CFU/mL of bacteria and 2 × 10^3 of CFU/mL yeast were added to related wells. As negative controls, wells including microorganisms without agents and wells including agents without microorganisms were used. The plates were kept at 35 °C for 18–20 h and the growth was determined with resazurin (20 mg/mL). Assays were carried out in triplicate.

[4] = system: C. parapsilosis (ATCC 22019); assay: Microdilution susceptibility assay (MIC); format: cell-based, Candida parapsilosis; details: Lodderomyces parapsilosis, ATCC22019
Procedure: as §2, §3

C. krusei cells = assay: Flow cytometry live/dead analysis (TO/PI); format: cell-based, Candida krusei; details: 25 µg/mL, 4 h
Text: In order to investigate the effects of compounds 7 and 9 on the integrity of C. krusei cells, flow cytometry was used with BD cell viability kits. Live cells are impermeable to dyes such as PI since they have intact membranes. TO is a permeant dye and enters live and dead cells to varying degrees. The fluorescent signal from TO in viable cells allows their enumeration, even when debris in the cell preparation contaminates a scatter gate around the cells. Thus, the combination of these two dyes provides a rapid and reliable method for discriminating live and dead eukaryotic cells, including yeasts. All steps were performed according to manufacturers’ recommendations. Briefly, Candida cells were cultured at 35 °C in SDB until late log phase. The cells were centrifuged and washed with phosphate-buffered saline (PBS) at pH = 7.0. Suspensions containing 2 × 10^3 cells/mL were incubated with compounds 7 and 9, and ketoconazole as a reference drug, for 4 h at 35 °C, with shaking (200 r.p.m.). […] Suspensions of treated and untreated cells were incubated for 30 min in the presence of 2 µL of PI and 2 µL of TO, in the dark, at room temperature. The cell suspensions were analysed in a BD Accuri C6 flow cytometer (Becton-Dickinson, Mansfield, MA, USA). The cell scattergram (forward scatter: FS, side scatter: SS), the autofluorescence (without fluorocrome), and the intensity of fluorescence at FL1 (green fluorescence, 525 nm) and FL2 (red fluorescence, 620 nm) were recorded using a logarithmic scale.

C. albicans = assay: ATP luminescence microbial cell viability assay; format: cell-based, Candida albicans; details: 24 h treatment, result in words
Procedure: (§4) A model from BioTek Instruments Inc. combined with a BacTiter-Glo^TM Microbial Cell Viability assay (Promega Corp., Madison, WI, USA) was used to provide a sensitive and rapid method for determining the number of viable microbial cells in culture based on quantitation of the ATP present. […] After incubation, cultures were added into the wells (final concentration of bacteria was 5 × 10^5 CFU/mL and 2.5 × 10^6 CFU/mL for yeasts). After adding the BacTiter reagent, incubation time for bacteria and yeasts was 5 min and 15 min, respectively.
The assay generates a “glow-type” luminescent signal, produced by the luciferase reaction. Briefly, after chemicals and strains were incubated for 24 h, 100 µL of the culture was taken from each well and mixed with the same volume of the BacTiter-Glo™ reagent in a white, opaque-walled microtiter plate. Control wells containing medium without cells were prepared to obtain a value for background luminescence. Cells without compound were used as an ATP-positive control. The microplates were further incubated under agitation for 7 min. Bioluminescence was recorded in a multi-detection microplate reader (BioTek Synergy 2 Multi-Mode Microplate Reader, BioTek Instruments, Winooski, VT, USA). […] Experiments were performed in triplicate and each sample was measured in four replicates.

C. glabrata = assay: ATP luminescence microbial cell viability assay; format: cell-based, Candida glabrata; details: 24 h treatment, result in words
Procedure: as §4
(§5) The assay generates a “glow-type” luminescent signal, produced by the luciferase reaction. Briefly, after chemicals and strains were incubated for 24 h, 100 µL of the culture was taken from each well and mixed with the same volume of the BacTiter-Glo™ reagent in a white, opaque-walled microtiter plate. Control wells containing medium without cells were prepared to obtain a value for background luminescence. Cells without compound were used as an ATP-positive control. The microplates were further incubated under agitation for 7 min. Bioluminescence was recorded in a multi-detection microplate reader (BioTek Synergy 2 Multi-Mode Microplate Reader, BioTek Instruments, Winooski, VT, USA). In Figure 3, results were given as percentage of untreated control, which is set at 100%. Experiments were performed in triplicate and each sample was measured in four replicates.

E. faecalis (ATCC 29212) = assay: ATP luminescence microbial cell viability assay; format: cell-based, Enterococcus faecalis; details: 24 h treatment, result in words
Procedure: as §4, §5

Cn1cccc1C(=O)C=Cc1ccc(-c2ccc(Cl)cc2)o1 [Compound 7, 1-(1-Methyl-1H-pyrrol-2-yl)-3-(5-(4-chlorophenyl)furan-2-yl)prop-2-en-1-one]
IC50 [1]: 23 µg/mL (≈ 73.8 µM) | IC50 (C6 rat glioma cell line): 311 µg/mL (≈ 998 µM) | IC50 [2]: 98 µg/mL (≈ 314 µM) | IC50 [3]: 40 µg/mL (≈ 128 µM) | MIC (C. glabrata (ATCC 90030)): 100 µg/mL (≈ 321 µM) | MIC [4]: 100 µg/mL (≈ 321 µM) | Dead Cell % (C. krusei cells): 20.0% | Live Cell % (C. krusei cells): 79.6% | antifungal activity in ATP bioluminescence assay (C. albicans): no statistically significant effects | antifungal activity in ATP bioluminescence assay (C. glabrata): antifungal activity close to ketoconazole | antimicrobial activity in ATP bioluminescence assay (E. faecalis (ATCC 29212)): sensitive

Cn1cccc1C(=O)C=Cc1ccc(-c2cc(Cl)ccc2Cl)o1 [Compound 9, 1-(1-Methyl-1H-pyrrol-2-yl)-3-(5-(2,5-dichlorophenyl)furan-2-yl)prop-2-en-1-one]
IC50 [1]: 101 µg/mL (≈ 292 µM) | IC50 (C6 rat glioma cell line): 109 µg/mL (≈ 315 µM) | IC50 [2]: > 346 µg/mL | IC50 [3]: 109 µg/mL (≈ 315 µM) | MIC (C. glabrata (ATCC 90030)): 100 µg/mL (≈ 289 µM) | MIC [4]: 50 µg/mL (≈ 144 µM) | Dead Cell % (C. krusei cells): 15.9% | Live Cell % (C. krusei cells): 83.9%
